Experimental data as given in patent publication US12291536B2, “Crystal form of Wee1 inhibitor compound and use thereof” (Wuxi Biocity Biopharmaceutics Co., Ltd., priority 2019, dated 2025).
Blank lines part the entries; values can stand above or below the molecule they belong to.

Key:
[1] = Pharmacokinetic evaluation after single intravenous and single oral administration; format: in vivo, female Balb/c Nude mice; conditions: female, Balb/c Nude; for AUC(0-t): read-out: Area under the drug-time curve AUC0-last; for half-life: read-out: Half-life T1/2 (converted)
Experimental: Twelve mice (provided by Lingchang) were randomly divided into two groups, 6 females in each group, and samples were collected by cross-blood sampling.
In the intravenous group, plasma samples were collected at 9 time points: 5 min, 15 min, 30 min, 1 h, 2 h, 4 h, 6 h, 8 h, and 24 h after the administration. In the oral group, plasma samples were collected at 8 time points: 15 min, 30 min, 1 h, 2 h, 4 h, 6 h, 8 h and 24 h after the administration.

[2] = target: T1, Wee1 (Homo sapiens, UniProt P30291); test: In vitro enzymatic inhibitory activity (Eurofins, [γ-33P]-ATP filter assay); format: biochemical; conditions: 10 μM ATP, 40 min, room temperature
T1 construct: purchased Eurofins
Experimental: The experimental test was carried out in Eurofins, and the experimental results were provided by the company.
Into the test system were added 20 mM Tris-HCl, pH 8.5, 0.2 mM EDTA, 500 μM polypeptide substrate ([sequence]), 10 mM magnesium acetate and 10 μM [γ-^33P]-ATP (intensity of about 500 cpm/pmol). After addition of Mg^2+ and ATP mixture, the reaction was initiated and incubated at room temperature for 40 min. 3% phosphate buffer was added to stop the reaction.
10 μL of reaction solution was taken and filtered on a continuous filter P30, and washed three times with 75 mM phosphate buffer, once with methanol, each washing for 5 min. After drying, the values were read by scintillation counting method.

[3] = system: P-gp (MDR1); test: In vitro permeability test in MDR1-MDCK II cells; format: in vitro ADME, canine; conditions: dog
Source text: (§1) MDR1-MDCK II cell authorized by the Piet Borst Laboratory of the Netherlands Cancer Institute was used in the study, the cell is a Madin-Darby canine kidney cell transfected with the human multi-drug resistance gene (MDR1), which can stably express efflux transporter P glycoprotein (P-gp) and therefore is suitable for screening P-gp substrate or inhibitor, and for predicting the permeability of compounds with high efflux barriers such as duodenum, blood-brain barrier, […], and kidney unit. MDR1-MDCK II cells of from passage 5-35 were used for permeability study.
(§2) MDR1-MDCK II cells were cultured with α-MEM medium (α-Minimum Essential Media) under culture condition of 37±1° C., 5% CO2 and saturated relative humidity. Then, the cells were seeded in a BD Transwell-96 well plate at a seeding density of 2.3×10^5 cells/cm^2, and then the cells were cultured in a carbon dioxide incubator for 4-7 days for transport experiment. The preparation method of its α-MEM medium was as follows:
(§3) The liquid nutrient base was prepared with powder (α-MEM powder from Gibco, Cat #:11900) dissolved in pure water, and was added with L- (L-glutamine) and NaHCO3. Then 10% FBS (fetal bovine serum), 1% PS (double antibody) and 1% NEAA were added upon use to make a complete medium. […]
(§4) After all samples were vortexed and centrifuged at 3220 g for 10 min, an appropriate volume of supernatant was transferred to the sample analysis plate. After the plate was sealed, the sample should be stored at 2-8° C. if it was not analyzed immediately, using the LC-MS/MS method for analysis.
(§5) After the transport experiment was over, the integrity of the MDR1-MDCK II cells was tested by the Lucifer Yellow Rejection Assay. After 30 min of incubation with the Lucifer Yellow solution, the Lucifer Yellow sample was collected, and the 2e plate reader set at 425/528 nm (Excitation/Emission) was used to detect the relative fluorescence intensity (RFU) of fluorescent yellow in the sample.

[4] = system: P-gp (human MDR1); test: In vitro permeability test in MDR1-MDCK II cells; format: in vitro ADME, canine; conditions: dog
Source text: as §1, §2, §3, §4, §5

[5] = system: mouse colon cancer CT26 cell allograft tumor; test: In vivo anti-tumor efficacy, CT26 mouse colon cancer cell transplanted tumor model; design: species or system BALB/c nude mice; conditions: gavage 30 mg/kg twice a day, 18 days
Experimental: Experimental procedure: The selected experimental animals were BALB/c nude mice, 7 weeks, weighing 16-20 g, female.
Cells: Mouse colon cancer CT26 cells (Cell Bank of Type Culture Collection Committee of Chinese Academy of Sciences) were cultured in monolayer in vitro, and culture condition was RPMI-1640 medium containing 10% fetal bovine serum, in 37° C., 5% CO2 incubator. Trypsin-EDTA was used for routine digestion and passage. When the cells were in the exponential growth phase and the saturation was 80%-90%, the cells were collected, counted, and inoculated. 0.1 mL of DPBS (containing 3×10^5 CT26 cells) was subcutaneously inoculated on the right back of each mouse. When the average tumor volume reached 50-70 mm^3, randomized administration was carried out according to the tumor volume. Gavage dosage: 30 mg/kg, twice a day.
(§6) The experimental index was to investigate whether the tumor growth was inhibited, alleviated or cured. The diameters of the tumors were measured with a vernier caliper twice a week. The anti-tumor efficacy of the compound was evaluated by TGI (%) or the relative tumor growth rate T/C (%). TGI (%) reflects the tumor growth inhibition rate. […]

[6] = system: human pancreatic cancer BxPC-3 cell xenograft tumor; test: In vivo pharmacodynamic study, human pancreatic cancer BxPC-3 subcutaneously transplanted tumor model; design: species or system BALB/c nude mice; conditions: BxPC-3 xenograft, gavage 25 mg/Kg once a day, 27 days
Experimental: Experimental procedure: The selected experimental animals were BALB/c nude mice, 6-8 weeks, weighing 18-22 g.
The 10th generation of BxPC-3 cells were cultured in monolayer in vitro, and the culture conditions were RPMI 1640 medium (Manufacturer: Gibco, Catalog: 22400-089) with 10% fetal bovine serum, 100 U/mL penicillin and 100 μg/mL Streptomycin, 37° C., 5% CO2, 4 passages. The passage method was twice a week with trypsin-EDTA for routine digestion and passage. When the cell saturation reached 80%-90%, the cells were digested with trypsin-EDTA, counted, and resuspended in PBS at a density of 5×10^7 cells/mL. Each animal was inoculated with 0.1 mL (5×10^6 cells) of BxPC-3 cells on the right back. When the average tumor volume reached 153 mm^3, they were randomly grouped according to the tumor volume and administration was started. Gavage dosage: 25 mg/Kg, once a day.
as §6

[7] = system: human colon cancer LoVo cell subcutaneous xenograft tumor; test: In vivo pharmacodynamic study, human colon cancer LoVo cell subcutaneous xenograft tumor model; design: species or system BALB/c nude mice; conditions: gavage 40 mg/kg twice a day, 16 days
Experimental: Experimental method: The selected experimental animals (provided by Shanghai SIPPR-BK Experimental Animal Co., Ltd.) were BALB/c nude mice, 6-8 weeks, weighing 18-22 g.
Human colon cancer LoVo cells were cultured in monolayer in vitro, and culture conditions were Ham's F-12 medium with 10% fetal bovine serum, 100 U/mL penicillin, 100 μg/mL streptomycin and 2 mM glutamine, 37° C., 5% CO2. Trypsin-EDTA was used for routine digestion and passage, twice a week. When the cell saturation is 80%-90%, the cells were collected, counted, and inoculated. 0.1 mL (10×10^6 cells) of LoVo cells were subcutaneously inoculated on the right back of each nude mouse, and group administration was initiated when the average tumor volume reached 213 mm^3. Dosage for gavage administration was 40 mg/kg, twice a day. The experimental index was to investigate whether the tumor growth was inhibited, alleviated or cured. The diameters of the tumors were measured with a vernier caliper twice a week. The calculation formula for the tumor volume was V=0.5a×b^2, where a and b represent the long diameter and short diameter of the tumor, respectively.
The anti-tumor efficacy of the compound was evaluated by TGI (%) or the relative tumor growth rate T/C (%). TGI (%) reflects the tumor growth inhibition rate. […]

[8] = Solid stability test of Crystal Form F under high temperature, high humidity, illumination and accelerated conditions; format: physicochemical
Experimental: According to influencing factors and accelerated test conditions, about 5 mg of Crystal Form F of the Compound of Formula (I) was weighed precisely and placed in a dry and clean glass bottle, in duplicate, and spread into a thin layer, as the formal test sample, placed under the influencing factors test conditions (60° C., 92.5% RH (relative humidity)) and accelerated conditions (40° C./75% RH and 60° C./75% RH), with the samples fully exposed. The test system was covered with an aluminum foil paper with small holes. In addition, a small amount of samples were taken and placed in a 40 mL glass sample bottle under the same conditions to determine the crystal state. Sampling and analysis were performed on day 5 days, 10 days, and one month. The samples placed under Illumination (visible light 1200000 Lux, UV 200 W) conditions were fully exposed at room temperature.

[9] = po, Administration by gavage, 10 mg/kg, mouse plasma
[10] = Intravenous administration, 1 mg/kg, mouse plasma
[11] = Illumination (visible light 1200000 Lux, UV 200 W), room temperature

T1 sequence (P30291 whole entry): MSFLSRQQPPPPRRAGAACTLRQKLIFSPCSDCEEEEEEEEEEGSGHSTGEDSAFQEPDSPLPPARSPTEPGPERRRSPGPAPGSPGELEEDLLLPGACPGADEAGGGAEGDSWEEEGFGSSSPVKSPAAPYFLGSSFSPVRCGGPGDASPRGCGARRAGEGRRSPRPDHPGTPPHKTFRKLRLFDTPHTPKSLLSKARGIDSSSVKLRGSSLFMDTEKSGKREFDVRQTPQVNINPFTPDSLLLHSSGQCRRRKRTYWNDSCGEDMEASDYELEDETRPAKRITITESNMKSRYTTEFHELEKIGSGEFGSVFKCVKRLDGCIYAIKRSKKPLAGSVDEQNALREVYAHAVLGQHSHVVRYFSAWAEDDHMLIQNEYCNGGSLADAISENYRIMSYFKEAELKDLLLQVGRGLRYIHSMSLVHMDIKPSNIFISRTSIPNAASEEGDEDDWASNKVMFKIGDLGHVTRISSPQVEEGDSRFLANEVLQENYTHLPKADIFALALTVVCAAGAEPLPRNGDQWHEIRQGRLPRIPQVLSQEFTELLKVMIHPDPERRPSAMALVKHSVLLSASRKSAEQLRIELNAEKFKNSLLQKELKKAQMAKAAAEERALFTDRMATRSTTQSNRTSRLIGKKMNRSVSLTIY

bioavailability ([1]; mouse, plasma, po, Administration by gavage, 10 mg/kg, read-out: Bioavailability F (%)): 62.4%
AUC(0-t) [1, 9]: 6.04 µM·h
clearance ([1]; Intravenous administration, 1 mg/kg, mouse plasma, read-out: Clearance rate): 33.5 mL/min/kg
half-life [1, 10]: 101 min
IC50 [2]: 29 nM
Papp A→B at 150 min, 2 μM ([3]; read-out: Penetration rate A to B): 4.55 ×10⁻⁶ cm/s
Papp B→A at 150 min, 2 μM ([3]; read-out: Penetration rate B to A): 17.4 ×10⁻⁶ cm/s
efflux ratio at 150 min, 2 μM [4]: 3.82
SMILES: CN1CCN(c2ccc(Nc3ncc4c(=O)n5n(c4n3)-c3cccc(n3)[C@](C)(O)CC/C=C\C5)cc2)CC1 (single isomer, unassigned) [Compound of Formula (I)]
TGI (%) [5]: 93.38%
TGI (%) [6]: 73.3%
TGI (%) [7]: 84.74%

AUC(0-t) [1, 9]: 1.2 µM·h
half-life [1, 10]: 15.1 min
SMILES: C=CCn1c(=O)c2cnc(Nc3ccc(N4CCN(C)CC4)cc3)nc2n1-c1cccc(C(C)(C)O)n1 [AZD1775, reference compound]
TGI (%) [5]: 66.43%
TGI (%) [6]: 24.3%
TGI (%) [7]: 26.73%

Content % ([8]; 0 day): 99.38%
Total impurity % ([8]; 0 day): 0.63%
Content % ([8]; 40° C.-75% humidity, 1 month): 97.94%
Total impurity % ([8]; 40° C.-75% humidity, 1 month): 0.62%
Content % ([8]; 40° C.-75% humidity, 10 day): 98.01%
Total impurity % ([8]; 40° C.-75% humidity, 10 day): 0.63%
Content % ([8]; 60° C., 5 days): 99.39%
Total impurity % ([8]; 60° C., 5 days): 0.74%
Content % ([8]; 60° C., 10 days): 99.98%
Total impurity % ([8]; 60° C., 10 days): 0.84%
Content % ([8]; 60° C.-75% humidity, 1 month): 99.46%
Total impurity % ([8]; 60° C.-75% humidity, 1 month): 0.75%
Content % ([8]; 60° C.-75% humidity, 10 day): 100.43%
Total impurity % ([8]; 60° C.-75% humidity, 10 day): 0.69%
Content % ([8]; 92.5% humidity, 5 days): 98.72%
Total impurity % ([8]; 92.5% humidity, 5 days): 0.61%
Content % ([8]; 92.5% humidity, 10 days): 98.38%
Total impurity % ([8]; 92.5% humidity, 10 days): 0.64%
Content % [8, 11]: 98.58%
Total impurity % [8, 11]: 0.67%
Content % ([8]; Protection from light): 97.77%
Total impurity % ([8]; Protection from light): 0.61%
Crystal form change (physical stability) ([8]; one-month solid influencing factor and accelerated test): did not change
SMILES: CN1CCN(c2ccc(Nc3ncc4c(=O)n5n(c4n3)-c3cccc(n3)[C@](C)(O)CC/C=C\C5)cc2)CC1 [Crystal Form F]
